# Where a name gives a salt, the structure may show the parent alone.
# Target: T1, TLR7/NFKb HEK cells (Homo sapiens, UniProt Q9NYK1)
# T1 construct: expressed in transfected cells; host or cells: HEK cells (TLR7/NFKb reporter line)
# T1 sequence (Q9NYK1 27-1049): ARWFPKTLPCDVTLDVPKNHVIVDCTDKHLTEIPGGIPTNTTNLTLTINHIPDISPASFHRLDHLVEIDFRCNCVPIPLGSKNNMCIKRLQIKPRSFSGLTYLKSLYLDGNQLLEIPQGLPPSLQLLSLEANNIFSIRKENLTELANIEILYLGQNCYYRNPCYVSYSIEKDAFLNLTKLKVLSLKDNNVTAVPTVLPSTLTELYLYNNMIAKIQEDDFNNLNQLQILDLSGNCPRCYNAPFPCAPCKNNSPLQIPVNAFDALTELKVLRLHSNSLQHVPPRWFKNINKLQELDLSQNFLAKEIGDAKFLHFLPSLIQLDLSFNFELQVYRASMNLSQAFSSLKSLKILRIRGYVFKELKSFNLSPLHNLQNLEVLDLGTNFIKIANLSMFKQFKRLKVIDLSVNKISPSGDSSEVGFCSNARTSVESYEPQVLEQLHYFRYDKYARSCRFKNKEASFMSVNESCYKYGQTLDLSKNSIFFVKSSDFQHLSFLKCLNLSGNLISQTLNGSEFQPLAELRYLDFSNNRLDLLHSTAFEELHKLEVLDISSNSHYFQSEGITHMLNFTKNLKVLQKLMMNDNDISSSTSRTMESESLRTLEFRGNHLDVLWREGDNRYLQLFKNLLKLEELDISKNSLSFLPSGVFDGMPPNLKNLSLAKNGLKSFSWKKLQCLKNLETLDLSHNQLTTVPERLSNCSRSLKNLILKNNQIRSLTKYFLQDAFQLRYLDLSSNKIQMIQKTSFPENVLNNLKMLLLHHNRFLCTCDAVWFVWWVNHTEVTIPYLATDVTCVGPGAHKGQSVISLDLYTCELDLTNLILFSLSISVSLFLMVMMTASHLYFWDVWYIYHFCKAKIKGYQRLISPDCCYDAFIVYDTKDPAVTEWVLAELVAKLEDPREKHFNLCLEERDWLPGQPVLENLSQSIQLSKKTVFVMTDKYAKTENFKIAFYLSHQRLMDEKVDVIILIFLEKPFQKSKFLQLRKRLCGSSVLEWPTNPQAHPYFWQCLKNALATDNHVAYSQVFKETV
# Experiment: HEK Cell Assay (TLR7/NFKb reporter, Steady-Glo luciferase readout)
# Assay type: cell-based
# Conditions: 30 min compound preincubation, then R*48 agonist for 5 hours, read-out: Potency
# How it was run: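 Steady-Glo luminescence after 5 h stimulation with R*48 agonist, following 30 min compound preincubation. Assay run in HEK cells carrying a TLR7/NFKb luciferase reporter, plated at 5000 cells/well and grown 24 h at 37° C (10% CO2) before treatment.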
row,Structure (SMILES),IC50 [nM]
1,"CC(C(=O)N[C@@H]1C[C@H](C)CN(c2ccc(C(F)(F)F)c3ncccc23)C1)N1CC(N)C1 (stereo partly drawn) [Compound 281, 2-(3-aminoazetidin-1-yl)-N-[(3R,5S)-5-methyl-1-[8-(trifluoromethyl)quinolin-5-yl]piperidin-3-yl]propanamide]",< 1000
2,"CC(C)(C(=O)N[C@@H]1C[C@H](C(F)(F)F)CN(c2ccc(C#N)c3ncccc23)C1)N1CCCCC1 [Compound 576, N-[(3R,5S)-1-(8-Cyano-quinolin-5-yl)-5-trifluoromethyl-piperidin-3-yl]-2-piperidin-1-yl-isobutyramide]",< 1000
3,"CCN1CCC(NC(=O)C2CC(C)CN(c3ccc(C#N)c4nccnc34)C2)CC1 (centres unmarked) [Compound 540, 1-(8-Cyano-quinoxalin-5-yl)-5-methyl-piperidine-3-carboxylic acid (1-ethyl-piperidin-4-yl)-amide]",< 1000
4,"CCN1CCC(NC(=O)C2CN(c3ccc(C#N)c4ncccc34)CC(F)(F)C2)CC1 (centres unmarked) [Compound 532, 1-(8-Cyano-quinolin-5-yl)-5,5-difluoro-piperidine-3-carboxylic Acid (1-ethyl-piperidin-4-yl)-amide]",< 1000
5,"N#Cc1ccc(N2CC(N)CC(C3CC3)C2)c2nccnc12 (single isomer, unassigned) [Compound 69, 8-(3-amino-5-cyclopropylpiperidin-1-yl)quinoxaline-5-carbonitrile]",1000 to 10000
6,"CC1CC(N)CN(c2ccc(F)c3nccnc23)C1 (single isomer, unassigned) [Compound 339]",< 1000
7,"C[C@H]1C[C@@H](NC(=O)CC(C)(C)C)CN(c2ccc(C(N)=O)c3ncccc23)C1 [Compound 182, 5-[(3R,5S)-3-(3,3-dimethylbutanamido)-5-methylpiperidin-1-yl]quinoline-8-carboxamide]",1000 to 10000
8,"C[C@H]1C[C@@H](N)CN(c2ccc(Cl)c3ncccc23)C1 [Compound 78, (3R,5S)-1-(8-chloroquinolin-5-yl)-5-methylpiperidin-3-amine]",< 1000
9,"C[C@@H]1CN(c2ccnc3nccnc23)C[C@H](C(=O)N2CC(N)C2)O1 [Compound 63, (3-aminoazetidin-1-yl)((2R,6R)-6-methyl-4-(pyrido[2,3-b]pyrazin-8-yl)morpholin-2-yl)methanone]",> 10000
10,"CC(C)[C@@H](O)C(=O)N[C@H]1CN(c2ccc(C#N)c3nccnc23)CC(C)(C)C1 [Compound 213, (2R)—N-[(3R)-1-(8-cyanoquinoxalin-5-yl)-5,5-dimethylpiperidin-3-yl]-2-hydroxy-3-methylbutanamide]",< 1000
11,"C[C@H]1C[C@@H](NC2CCN(C)C2=O)CN(c2ccc(Cl)c3ncccc23)C1 (single isomer, unassigned) [Compound 260]",< 1000
12,"CN(C)CCNC(=O)C1CCN(c2ccc(C#N)c3ncccc23)CC1 [Compound 415, 1-(8-Cyano-quinolin-5-yl)-piperidine-4-carboxylic Acid (2-dimethylamino-ethyl)-amide]",< 1000
13,"C[C@H]1C[C@@H](NC(=O)COC(C)(C)C)CN(c2ccc(C#N)c3nccnc23)C1 [Compound 163, 2-(tert-butoxy)-N-[(3R,5S)-1-(8-cyanoquinoxalin-5-yl)-5-methylpiperidin-3-yl]acetamide]",< 1000
14,"C[C@@H]1CN(c2ncc(F)c3nccnc23)C[C@H](C)O1 [Compound 455, cis-5-(2,6-Dimethyl-morpholin-4-yl)-8-fluoro-pyrido[3,4-b]pyrazine]",> 10000
15,"CN(C)CC(=O)NC1CN(c2ccc(C#N)c3ncccc23)CC(F)(F)C1 (single isomer, unassigned) [Compound 450]",1000 to 10000
16,"CC(C)N1CCC(CC(=O)N[C@@H]2C[C@H](C(F)(F)F)CN(c3ccc(C#N)c4ncccc34)C2)CC1 [Compound 585, N-[(3R,5S)-1-(8-Cyano-quinolin-5-yl)-5-trifluoromethyl-piperidin-3-yl]-2-(1-isopropyl-piperidin-4-yl)-acetamide]",< 1000

row,Structure (SMILES),IC50 [nM]
1,"C[C@H]1C[C@@H](NC(=O)CC(C)(C)CN)CN(c2ccc(C(F)(F)F)c3ncccc23)C1 [Compound 291, 4-amino-3,3-dimethyl-N-[(3R,5S)-5-methyl-1-[8-(trifluoromethyl)quinolin-5-yl]piperidin-3-yl]butanamide]",< 1000
2,"CN1CCN(CC(=O)NC2CN(c3ccc(C#N)c4nccnc34)CC(F)(F)C2)CC1 (centres unmarked) [Compound 503, N-[1-(8-Cyano-quinoxalin-5-yl)-5,5-difluoro-piperidin-3-yl]-2-(4-methyl-piperazin-1-yl)-acetamide]",< 1000
3,"C[C@H]1C[C@@H](NC(=O)CN(C)C)CN(c2ccnc3nccnc23)C1 [Compound 33, 2-(dimethylamino)-N-((3R,5S)-5-methyl-1-(pyrido[2,3-b]pyrazin-8-yl)piperidin-3-yl)acetamide]",1000 to 10000
4,"C[C@H]1C[C@@H](NC(=O)CC2(N)CCCCC2)CN(c2ccc(C(F)(F)F)c3ncccc23)C1 [Compound 483, 2-(1-Amino-cyclohexyl)-N-[(3R,5S)-5-methyl-1-(8-trifluoromethyl-quinolin-5-yl)-piperidin-3-yl]-acetamide]",< 1000
5,"C[C@H]1C[C@@H](NC(C)(C)CO)CN(c2ccc(C(F)(F)F)c3ncccc23)C1 [Compound 242, 2-methyl-2-[[(3R,5S)-5-methyl-1-[8-(trifluoromethyl)quinolin-5-yl]piperidin-3-yl]amino]propan-1-ol]",1000 to 10000
6,"C[C@H]1C[C@@H](NC(=O)[C@H](C)N(C)C)CN(c2ccc(C(F)(F)F)c3ncccc23)C1 [Compound 526, (S)-2-Dimethylamino-N-[(3R,5S)-5-methyl-1-(8-trifluoromethyl-quinolin-5-yl)-piperidin-3-yl]-propionamide]",< 1000
7,"CC(C)(C)OCC(=O)NCC1CCN(c2ccc(C#N)c3ncccc23)CC1 [Compound 412, 2-tert-Butoxy-N-[1-(8-cyano-quinolin-5-yl)-piperidin-4-ylmethyl]-acetamide]",> 10000
8,"C[C@H]1C[C@@H](NC(=O)CN2CCC(F)(F)CC2)CN(c2ccc(C(F)(F)F)c3nccnc23)C1 [Compound 354, 2-(4,4-difluoropiperidin-1-yl)-N-[(3R,5S)-5-methyl-1-[8-(trifluoromethyl)quinoxalin-5-yl]piperidin-3-yl]acetamide]",1000 to 10000
9,"Cc1c(F)cc(N2C[C@@H](C)C[C@@H](N)C2)c2cccnc12 [Compound 488, (3R,5S)-1-(7-Fluoro-8-methyl-quinolin-5-yl)-5-methyl-piperidin-3-ylamine hydrochloride]",< 1000
10,"C[C@H]1C[C@@H](NC(=O)Cc2cn(C)cn2)CN(c2ccc(C#N)c3nccnc23)C1 [Compound 132, N-[(3R,5S)-1-(8-cyanoquinoxalin-5-yl)-5-methylpiperidin-3-yl]-2-(1-methyl-1H-imidazol-4-yl)acetamide]",< 1000
11,"C[C@H]1C[C@@H](NC(=O)[C@H](C)N)CN(c2ccnc3nccnc23)C1 [Compound 27, (S)-2-amino-N-((3R,5S)-5-methyl-1-(pyrido[2,3-b]pyrazin-8-yl)piperidin-3-yl)propanamide]",1000 to 10000
12,"COCC(=O)N[C@@H]1C[C@H](C)CN(c2ccc(C#N)c3nccnc23)C1 [Compound 134, N-[(3R,5S)-1-(8-cyanoquinoxalin-5-yl)-5-methylpiperidin-3-yl]-2-methoxyacetamide]",1000 to 10000
13,"C[C@H]1C[C@@H](NC(=O)C(N)C2CC2)CN(c2ccc(C(F)F)c3ncccc23)C1 (stereo partly drawn) [Compound 306, 2-amino-2-cyclopropyl-N-[(3R,5S)-1-[8-(difluoromethyl)quinolin-5-yl]-5-methylpiperidin-3-yl]acetamide]",< 1000
14,"C[C@H]1C[C@@H](NC(=O)CN2CCOCC2)CN(c2ccnc3nccnc23)C1 [Compound 110, N-[(3R,5S)-5-methyl-1-[pyrido[2,3-b]pyrazin-8-yl]piperidin-3-yl]-2-(morpholin-4-yl)acetamide]",> 10000
15,"COCCN[C@@H]1C[C@H](C2CC2)CN(c2ccc(C#N)c3nccnc23)C1 (relative stereo) [Compound 176, cis-8-[3-cyclopropyl-5-[(2-methoxyethyl)amino]piperidin-1-yl]quinoxaline-5-carbonitrile]",1000 to 10000
16,"C[C@H]1C[C@@H](NC(=O)CC2(C)CCN(C)CC2)CN(c2ccc(C(F)(F)F)c3ncccc23)C1 [Compound 245, 2-(1,4-dimethylpiperidin-4-yl)-N-[(3R,5S)-5-methyl-1-[8-(trifluoromethyl)quinolin-5-yl]piperidin-3-yl]acetamide]",< 1000

# — patent US10947213B1 (Merck Patent GmbH, priority 2015, dated 2021)
